Assay results: publication PMC8230315, “A Pan-Inhibitor for Protein Arginine Methyltransferase Family Enzymes” (Biomolecules, 2021)
Entries after “also recorded” stand apart in the source; their conditions may differ.

Assays:
Format in all cases: biochemical
PRMT1 = PRMT1 (Homo sapiens, UniProt Q99873); test: Inhibition mechanism kinetic analysis, SAHH-coupled fluorescence assay with PRMT1
Procedure: The fluorescence-based SAHH-coupled assay was employed for the enzyme kinetic study. Varying concentrations of SAM (from 0.5 to 8 Km) with 5 μM fixed concentration of H4-21 or varying concentration of H4-21 (from 0.5 to 8 Km) with 10 μM fixed concentration of SAM was included in reactions with a series concentration of compounds. All the IC50 values were determined in triplicate. Fluorescence was monitored on a BMG CLARIOstar microplate with excitation at 380 nm and emission at 505 nm. Data were processed using GraphPad Prism software 7.0.

SETD7 = target: T1, SETD7 (Homo sapiens, UniProt Q8WTS6); test: Selectivity SAHH-coupled fluorescence assay, SETD7
T1 construct: made in house
T1 sequence (Q8WTS6 1-366): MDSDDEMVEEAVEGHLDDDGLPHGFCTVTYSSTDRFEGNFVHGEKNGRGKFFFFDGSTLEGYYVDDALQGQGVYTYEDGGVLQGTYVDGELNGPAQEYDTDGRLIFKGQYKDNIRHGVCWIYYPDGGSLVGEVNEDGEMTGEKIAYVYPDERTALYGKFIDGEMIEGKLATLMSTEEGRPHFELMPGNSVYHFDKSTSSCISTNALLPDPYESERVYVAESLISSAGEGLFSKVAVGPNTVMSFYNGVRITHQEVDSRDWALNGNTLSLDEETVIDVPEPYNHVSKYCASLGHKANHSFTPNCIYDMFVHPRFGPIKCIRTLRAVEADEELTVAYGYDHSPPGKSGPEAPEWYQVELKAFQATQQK
Excerpt: We chose the top four potent compounds (6b and 6l–n) to investigate their selectivities against several in-house methyltransferases including protein arginine methyltransferase TbPRMT7, two members of the protein lysine methyltransferase PKMT (G9a and SETD7), protein N-terminal methyltransferase 1 (NTMT1), and a small molecule methyltransferase nicotinamide N-methyltransferase (NNMT), all of which have a SAM binding site.
A fluorescence-based SAHH-coupled assay was applied to study the effect of the compound on methyltransferase activity of PRMT7, NTMT1, SETD7, G9a, NNMT, and SAHH. For PRMT7, the assay was performed in a final well volume of 100 μL: 25 mM Tris (pH = 7.5), 50 mM KCl, 0.01% Triton X-100, 5 μM SAHH, 0.2 μM PRMT7, 3 μM AdoMet, and 15 μM ThioGlo1. After incubation for 10 min with the inhibitor, reactions were initiated by the addition of 60 μM H4-21 peptide, and the reaction was monitored for 15 min. For NTMT1, the assay was performed in a final well volume of 100 μL: 25 mM Tris (pH = 7.5), 50 mM KCl, 0.01% Triton X-100, 5 μM SAHH, 0.1 μM NTMT1, 3 μM AdoMet, and 10 μM ThioGlo4. After incubation for 10 min with the inhibitor, reactions were initiated by the addition of 0.5 μM GPKRIA peptide, and the reaction was monitored for 15 min. For SETD7, the assay was performed in a final well volume of 100 μL: 25 mM potassium phosphate buffer (pH = 7.6), 0.01% Triton X-100, 5 μM SAHH, 1 μM SETD7, 2 μM AdoMet, and 10 μM ThioGlo1. After incubation for 10 min with the inhibitor, reactions were initiated by the addition of 90 μM H3-21 peptide, and the reaction was monitored for 15 min. For G9a, the assay was performed in a final well volume of 100 μL: 25 mM potassium phosphate buffer (pH = 7.6), 1 mM EDTA, 2 mM MgCl2, 0.01% Triton X-100, 5 μM SAHH, 0.1 μM His-G9a, 10 μM AdoMet, and 10 μM ThioGlo4. For NNMT, the assay was performed in a final well volume of 100 μL: 25 mM Tris (pH = 7.5), 50 mM KCl, 0.01% Triton X- 100, 5 μM SAHH, 0.1 μM NNMT, 10 μM AdoMet, and 10 μM ThioGlo1. After incubation for 10 min with the inhibitor, reactions were initiated by the addition of 10 μM nicotinamide, and the reaction was monitored for 18 min. The inhibitors were added at five concentrations: 100, 33.3, 11.1, 3.7, and 1.2 μM.

PRMT5/MEP50 Complex = target: T2, PRMT5/MEP50 Complex (Homo sapiens, UniProt O14744); test: HotSpot radioisotope 3H-AdoMet methyltransferase assay, PRMT5/MEP50
T2 construct: purchased Reaction Biology
Procedure: (§1) Future studies will focus on obtaining structural information of II757 bound to PRMTs to inform how to connect to a substrate portion to increase both potency and selectivity for each PRMT.
(§2) Figure 6 Selectivity of II757 against the panel of PRMTs. II757 was tested in 10 doses with threefold serial dilution in the HotSpot methyltransferase assay at reaction biology. TEXT PRINTED IN THE PICTURE: II757: IC50 (nM) PRMT1: 16.4; IC50 (nM) PRMT3: 321; IC50 (nM) PRMT4: 5.05; IC50 (nM) PRMT5/MEP50 Complex: 18.2; IC50 (nM) PRMT5 (C449S)/MEP50: 36.6; IC50 (nM) PRMT6: 30.5; IC50 (nM) PRMT7: 555; IC50 (nM) PRMT8: 32.1

PRMT8 = target: T3, PRMT8 (Homo sapiens, UniProt Q9NR22); test: HotSpot radioisotope 3H-AdoMet methyltransferase assay, PRMT8
T3 construct: purchased Reaction Biology
Procedure: as §1, §2

Chain of PRMT1 (Q99873 whole entry, species assumed): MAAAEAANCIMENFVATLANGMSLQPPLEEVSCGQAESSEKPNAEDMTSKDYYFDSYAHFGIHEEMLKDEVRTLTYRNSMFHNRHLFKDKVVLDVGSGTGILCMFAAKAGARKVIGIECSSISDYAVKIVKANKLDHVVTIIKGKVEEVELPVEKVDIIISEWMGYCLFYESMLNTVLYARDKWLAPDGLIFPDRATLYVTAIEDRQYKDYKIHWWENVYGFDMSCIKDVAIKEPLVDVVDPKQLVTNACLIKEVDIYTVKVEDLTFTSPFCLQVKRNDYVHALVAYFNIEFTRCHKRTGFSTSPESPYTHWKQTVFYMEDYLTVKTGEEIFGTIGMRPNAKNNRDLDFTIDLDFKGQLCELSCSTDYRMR
T3 sequence (Q9NR22 whole entry): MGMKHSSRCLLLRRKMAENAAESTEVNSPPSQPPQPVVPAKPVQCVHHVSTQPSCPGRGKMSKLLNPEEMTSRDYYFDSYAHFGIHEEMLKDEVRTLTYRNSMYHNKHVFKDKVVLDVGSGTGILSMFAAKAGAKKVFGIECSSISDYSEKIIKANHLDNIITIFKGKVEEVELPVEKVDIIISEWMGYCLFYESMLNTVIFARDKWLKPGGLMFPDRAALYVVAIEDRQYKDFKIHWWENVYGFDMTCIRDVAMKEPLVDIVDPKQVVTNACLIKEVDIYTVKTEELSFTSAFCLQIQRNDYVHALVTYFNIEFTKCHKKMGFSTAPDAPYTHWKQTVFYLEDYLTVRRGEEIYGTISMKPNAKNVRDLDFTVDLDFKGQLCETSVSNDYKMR
T2 sequence (O14744 whole entry): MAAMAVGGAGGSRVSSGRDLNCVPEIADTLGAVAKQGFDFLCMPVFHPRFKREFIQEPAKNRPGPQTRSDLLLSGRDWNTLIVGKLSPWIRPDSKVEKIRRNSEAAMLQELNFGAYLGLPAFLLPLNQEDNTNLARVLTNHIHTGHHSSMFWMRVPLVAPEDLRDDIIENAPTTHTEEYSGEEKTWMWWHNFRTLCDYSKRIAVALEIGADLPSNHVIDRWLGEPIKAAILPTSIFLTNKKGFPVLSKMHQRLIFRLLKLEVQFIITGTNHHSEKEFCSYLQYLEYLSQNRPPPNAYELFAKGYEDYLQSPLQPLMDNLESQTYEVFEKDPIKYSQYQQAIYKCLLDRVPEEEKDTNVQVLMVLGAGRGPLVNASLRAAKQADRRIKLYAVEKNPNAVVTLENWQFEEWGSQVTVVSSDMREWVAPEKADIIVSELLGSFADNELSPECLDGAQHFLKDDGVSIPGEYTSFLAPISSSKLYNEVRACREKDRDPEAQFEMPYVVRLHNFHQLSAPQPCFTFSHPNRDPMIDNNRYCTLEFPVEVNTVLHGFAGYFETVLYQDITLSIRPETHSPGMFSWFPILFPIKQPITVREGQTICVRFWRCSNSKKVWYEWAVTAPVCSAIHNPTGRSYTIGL
T2 sequence (Q9BQA1 whole entry partner): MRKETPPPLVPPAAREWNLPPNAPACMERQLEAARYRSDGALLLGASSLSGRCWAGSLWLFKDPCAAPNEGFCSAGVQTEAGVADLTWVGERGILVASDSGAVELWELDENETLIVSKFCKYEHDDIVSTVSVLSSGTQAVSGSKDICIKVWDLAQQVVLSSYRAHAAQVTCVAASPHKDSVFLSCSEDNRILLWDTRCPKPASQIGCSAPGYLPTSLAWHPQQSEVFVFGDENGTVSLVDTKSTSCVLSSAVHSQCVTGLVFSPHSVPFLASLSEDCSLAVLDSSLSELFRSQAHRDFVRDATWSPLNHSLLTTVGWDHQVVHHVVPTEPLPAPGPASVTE

N=C(NCCCSC[C@H]1O[C@@H](n2cnc3c(N)ncnc32)[C@H](O)[C@@H]1O)Nc1cccc(Br)c1 [Compound 6l, 1-(3-((((2S,3S,4R,5R)-5-(6-amino-9H-purin-9-yl)-3,4-dihydroxytetrahydrofuran-2-yl)methyl)thio)propyl)-3-(3-bromophenyl)guanidine]
inhibition pattern versus peptide substrate H4-21 (PRMT1; H4-21 from 0.5 to 8 Km, SAM fixed at 10 µM): noncompetitive
inhibition pattern versus SAM (PRMT1; SAM from 0.5 to 8 Km, H4-21 fixed at 5 µM, listed as II757): competitively binds at the SAM binding site; also recorded: SAM-competitive inhibitor
selectivity over SETD7 (SETD7): over 1000 fold
IC50 (PRMT5/MEP50 Complex): 18.2 nM
IC50 (PRMT8): 32.1 nM
